Assay results from US4954348A, “Non-ionic polyol contrast media from ionic contrast media” (Cook Imaging Corporation, priority 1988, dated 1990).
Like-named read-outs stand apart in the source and are kept apart here.

Columns and labels:
[1] = 300 mg I/ml, 37° C.; ^+ Ref. Handbook of Experimental Pharmacology, Vol. 73; cited from earlier work
[2] = 300 mg I/ml, 37° C.; ^+ Ref. Handbook of Experimental Pharmacology, Vol. 73; cited from earlier work; remark: listed apart in the source
Mice (female CD-1) = test: i.v. LD50 in mice (systemic toxicity); type: in vivo; conditions: 300 mg I/ml, 37° C., injection rate 1 ml/min
Procedure: (§1) All compounds were tested for stability, solubility, osmolality, viscosity and systemic toxicity, using conventional tests.
(§2) *All at 300 mg I/ml concentration and 37° C. Injection rates 1
(§3) ml/min in mice and 5 ml/min in rats.
(§4) ^° Ref. Salvesen, S. in Acta Radiol. Suppl. 362, p. 73, 1980.

Rats (female Lewis) = test: i.v. LD50 in rats (systemic toxicity); type: in vivo; conditions: 300 mg I/ml, 37° C., injection rate 5 ml/min
Procedure: as §1, §2, §3, §4

[3] = Osmolality at 300 mg I/ml, 37° C.; type: physicochemical; conditions: for Osmolality: 300 mg I/ml, 37° C.; for osmolality versus existing compounds: existing compounds serving as control
Procedure: as §1, §2

[4] = stability, solubility, osmolality, viscosity and systemic toxicity, conventional tests (overall statement); conditions: existing compounds serving as control
Procedure: as §1

[5] = Viscosity at 300 mg I/ml, 37° C.; type: physicochemical
Procedure: as §1, §2

[6] = must be dispensed in lyophilized form and reconstituted prior to use; cited from earlier work

Row | SMILES | Viscosity [1] | Osmolality [2] | i.v. LD50 (Mice (female CD-1)) | i.v. LD50 (Rats (female Lewis)) | Osmolality [3] | osmolality versus existing compounds [3] | stability, solubility, viscosity and systemic toxicity (other categories) versus existing compounds [4] | Viscosity [5] | hydrolytic stability [6]
1 | C[C@H](O)C(=O)Nc1c(I)c(C(=O)NC(CO)CO)c(I)c(C(=O)NC(CO)CO)c1I [Iopamidol] | 4.5 cps | 619 mOsm/kg | 17-18.5 gI/kg | 12.2-13 gI/kg | – | – | – | – | –
2 | CC(=O)N(CC(O)CO)c1c(I)c(C(=O)NCCO)c(I)c(C(=O)NCC(O)CO)c1I (stereo not shown) [VIII, 5-(N-2,3-Dihydroxypropylacetamido)-2,4,6-triiodo-N-(2,3-dihydroxypropyl)-N'-(2-hydroxyethyl)isophthalamide] | – | – | 18.8 gI/kg | 14-16.5 gI/kg | 524 mOsm/kg | substantially reduced osmolality | comparable or superior properties in the other categories | 4.9 cps | –
3 | CNC(=O)c1c(I)c(C(=O)N[C@H](CO)[C@@H](O)CO)c(I)c(N(CC(O)CO)C(C)=O)c1I (relative stereo) [XVI, 5-(N-2,3-Dihydroxypropylacetamido)-2,4,6-triido-N-methyl-N'-(1,3,4-trihydroxy-erythro-but-2-yl)-isophthalamide] | – | – | 12-13 gI/kg | 13.5-14 gI/kg | 513 mOsm/kg | substantially reduced osmolality | comparable or superior properties in the other categories | 5.2 cps | –
4 | CC(=O)N(CC(O)CO)c1c(I)c(C(=O)NCC(O)CO)c(I)c(C(=O)NCC(O)CO)c1I (stereo not shown) [Iohexol] | 6.1 cps | 690 mOsm/kg | 17.9 gI/kg | 13.5-15 gI/kg | – | – | – | – | –
5 | CC(=O)Nc1c(I)c(C(=O)N[C@H]2C(O)O[C@H](CO)[C@@H](O)[C@@H]2O)c(I)c(N(C)C(C)=O)c1I (stereo partly shown) [Metrizamide] | – | – | – | – | – | – | – | – | hydrolytic instability
6 | COCC(=O)Nc1c(I)c(C(=O)NCC(O)CO)c(I)c(C(=O)N(C)CC(O)CO)c1I (stereo not shown) [Iopromide] | 4.8 cps | 607 mOsm/kg | 11.5-13.0 gI/kg | 10-11.5 gI/kg | – | – | – | – | –
